Data reported in patent US20230365561A1, “BETA-LACTAMASE INHIBITORS AND THEIR PREPARATION” (NINGXIA ACADEMY OF AGRICUL TURE AND FORESTRY SCIENCES, priority 2020, published 2023).
Counter-ions that a name gives are not always drawn. Like-named read-outs stand apart in the source and are kept apart here.

Key:
Format in all cases: cell-based
[1] = tested on: A. baumannii 19606 (strain 8); assay: MIC by broth microdilution (alone and in combination with meropenam), strain 8; settings: for MIC: Acinetobacter baumannii, compound alone
Method: (§1) Compounds of the present invention alone, meropenam (MER) alone, and as a combination with test antibiotic (meropenam) were tested for antimicrobial activity by determing minimum inhibitory concentration (MIC, mg/L) using the broth microdilution method according to the guidelines of the Clinical Laboratories and Stansards Insitute (“Methods for Dilution Antimicrobial Suscetibility Tests for Bacterial that Grow Aerobiclly”, Approved standard, […]., Clinical and Laboratories Stanards Institute (CLSI) Document M7-A8, Wayne, Pa., USA, 2009). Meropenam as a test antibiotic compound was dissolved in DMSO. Meropenam was then diluted in microbial growth medium (Mueller-Hinton Broth II, cation adjusted) resulting in a final concention range of 0.125-64 mg/L in serial two-fold dilution. In all cases the filnal DMSO concentraion was less than 0.5%. Bacteria were added to 96-well microtitre plates containing the serial two-fold dilutions of the compoumds; the final cell density was appoximately 5x10^5 colony forming units/mL (CFU/mL). Plates were incubated at 37° C. for 18-24 hours and read visually. The MIC, i.e. the lowest concentration of the test compound that inhibited visible growth of the bacteria, was recorded. The same assay conditions were used when the compounds of present invention alone, and as a combination with test meropenam antibiotic compound was tested for minmum inhibitory concentration (MIC, mg/L). Whileest meropenam was serially diluted as descrribed above, a constant concentration of the present invention of 4 µg/mL was used.
(§2) Bacterial strains that were used to evaluate the antimicrobial activity using the MIC determination included but were not limited to E. coli clinical isolate (strain 1), E. coli 8739 (strain 2), K. pneumoniae clinical isolate (strain 3), K. pneumoniae 700603 (strain 4), E. cloacae clinical isolate (strain 5), E. cloacae 700323 (strain 6), A. baumannii clinical isolate (strain 7), A. baumannii 19606 (strain 8), P. aeruginosa clinical isolate (strain 9), P. aeruginosa 9027 (strain 10).

[2] = tested on: E. coli 8739 (strain 2); assay: MIC by broth microdilution (alone and in combination with meropenam), strain 2; settings: for MIC: Escherichia coli, compound alone
Method: as §1, §2

[3] = tested on: K. pneumoniae 700603 (strain 4); assay: MIC by broth microdilution (alone and in combination with meropenam), strain 4; settings: for MIC: Klebsiella pneumoniae, compound alone
Method: as §1, §2

[4] = tested on: K. pneumoniae clinical isolate (strain 3); assay: MIC by broth microdilution (alone and in combination with meropenam), strain 3; settings: for MIC: Klebsiella pneumoniae, compound alone
Method: as §1, §2

[5] = tested on: P. aeruginosa 9027 (strain 10); assay: MIC by broth microdilution (alone and in combination with meropenam), strain 10; settings: for MIC: Pseudomonas aeruginosa, compound alone
Method: as §1, §2

[6] = tested on: P. aeruginosa clinical isolate (strain 9); assay: MIC by broth microdilution (alone and in combination with meropenam), strain 9; settings: for MIC: Pseudomonas aeruginosa, compound alone
Method: as §1, §2

[7] = tested on: E. coli clinical isolate (strain 1); assay: MIC by broth microdilution (alone and in combination with meropenam), strain 1; settings: for MIC: Escherichia coli, compound alone
Method: as §1, §2

[8] = tested on: E. cloacae 700323 (strain 6); assay: MIC by broth microdilution (alone and in combination with meropenam), strain 6; settings: for MIC: Enterobacter cloacae, compound alone
Method: as §1, §2

[9] = tested on: A. baumannii clinical isolate (strain 7); assay: MIC by broth microdilution (alone and in combination with meropenam), strain 7; settings: for MIC: Acinetobacter baumannii, compound alone
Method: as §1, §2

[10] = tested on: E. cloacae clinical isolate (strain 5); assay: MIC by broth microdilution (alone and in combination with meropenam), strain 5; settings: for MIC: Enterobacter cloacae, compound alone
Method: as §1, §2

[11] = read-out: MIC, antibacterial activity of example alone

MIC [1, 11] [µg/mL]	MIC [2, 11] [µg/mL]	MIC [3, 11] [µg/mL]	MIC [4, 11] [µg/mL]	MIC [5, 11] [µg/mL]	MIC [6, 11] [µg/mL]	MIC [7, 11] [µg/mL]	MIC [8, 11] [µg/mL]	MIC [9, 11] [µg/mL]	MIC [10, 11] [µg/mL]	SMILES	further results
										C[C@@H](O)[C@H]1C(=O)N2C(C(=O)O)=C(S[C@@H]3CN[C@H](C(=O)N(C)C)C3)[C@H](C)[C@H]12 [MER, meropenam, reference compound]	MIC, MER Alone ([1]; meropenam alone): 1.0 µg/mL; MIC, MER Alone ([2]; meropenam alone): 2.0 µg/mL; MIC, MER Alone ([3]; meropenam alone): 1.0 µg/mL; MIC, MER Alone ([4]; meropenam alone): 2.0 µg/mL; MIC, MER Alone ([5]; meropenam alone): 2.0 µg/mL; MIC, MER Alone ([6]; meropenam alone): 2.0 µg/mL; MIC, MER Alone ([7]; meropenam alone): 2.0 µg/mL; MIC, MER Alone ([8]; meropenam alone): 2.0 µg/mL; MIC, MER Alone ([9]; meropenam alone): 2.0 µg/mL; MIC, MER Alone ([10]; meropenam alone): 2.0 µg/mL
> 64	> 64	> 64	> 64	> 64	> 64	> 64	> 64	> 64	> 64	N=C(NC(=O)c1ccccc1)[C@@H]1CC[C@@H]2CN1C(=O)N2OS(=O)(=O)O [Ex.2, (2S,5R)-2-(N-benzoylcarbamimidoyl)-7-oxo-1,6-diazabicyclo[3.2.1]octan-6-yl Hydrogen Sulfate]	
> 64	> 64	> 64	> 64	> 64	> 64	> 64	> 64	> 64	> 64	N=C(NC(=O)c1cnco1)[C@@H]1CC[C@@H]2CN1C(=O)N2OS(=O)(=O)[O-].[Na+] [Ex.21, Sodium (2S,5R)-2-(N-(oxazole-5-carbonyl)carbamimidoyl)-7-oxo-1,6-diazabicyclo[3.2.1]octan-6-yl Sulfate]	
> 64	> 64	> 64	> 64	> 64	> 64	> 64	> 64	> 64	> 64	CC(=O)N1CC[C@@H](C(=O)NC(=N)[C@@H]2CC[C@@H]3CN2C(=O)N3OS(=O)(=O)O)C1 [Ex.31, Sodium (2S,5R)-2-(N-((R)-1-acetylpyrrolidine-3-carbonyl)carbamimidoyl)-7-oxo-1,6-diazabicyclo[3.2.1]octan-6-yl Sulfate]	
										N=C(N)NCCC(=O)NC(=N)[C@@H]1CC[C@@H]2CN1C(=O)N2OS(=O)(=O)O [Ex.51, (2S,5R)-2-(N-(3-guanidinopropanoyl)carbamimidoyl)-7-oxo-1,6-diazabicyclo[3.2.1]octan-6-yl Hydrogen Sulfate]	MIC ([1]; read-out: MIC): > 64 µg/mL; MIC ([2]; read-out: MIC): > 64 µg/mL; MIC ([3]; read-out: MIC): > 64 µg/mL; MIC ([4]; read-out: MIC): > 64 µg/mL; MIC ([5]; read-out: MIC): > 64 µg/mL; MIC ([6]; read-out: MIC): > 64 µg/mL; MIC ([7]; read-out: MIC): > 64 µg/mL; MIC ([8]; read-out: MIC): > 64 µg/mL; MIC ([9]; read-out: MIC): > 64 µg/mL; MIC ([10]; read-out: MIC): > 64 µg/mL
> 64	> 64	> 64	> 64	> 64	> 64	> 64	> 64	> 64	> 64	CN1CC[C@H](C(=O)NC(=N)[C@@H]2CC[C@@H]3CN2C(=O)N3OS(=O)(=O)[O-])C1.[Na+] [Ex.32, Sodium (2S,5R)-2-(N-((S)-1-methylpyrrolidine-3-carbonyl)carbamimidoyl)-7-oxo-1,6-diazabicyclo[3.2.1]octan-6-yl Sulfate]	

SMILES	MIC [1, 11] [µg/mL]	MIC [2, 11] [µg/mL]	MIC [3, 11] [µg/mL]	MIC [4, 11] [µg/mL]	MIC [5, 11] [µg/mL]	MIC [6, 11] [µg/mL]	MIC [7, 11] [µg/mL]	MIC [8, 11] [µg/mL]	MIC [9, 11] [µg/mL]	MIC [10, 11] [µg/mL]	further results
CC(C)(C)OC(=O)N1CCC(C(=O)NC(=N)[C@@H]2CC[C@@H]3CN2C(=O)N3OS(=O)(=O)[O-])CC1.[Na+] [Ex.14, Sodium (2S,5R)-2-(N-(1-(tert-butoxycarbonyl)piperidine-4-carbonyl)carbamimidoyl)-7-oxo-1,6-diazabicyclo[3.2.1]octan-6-yl Sulfate]	> 64	> 64	> 64	> 64	> 64	> 64	> 64	> 64	> 64	> 64	
